According to US10385097B2, “Ether compounds for treatment of medical disorders” (Achillion Pharmaceuticals, Inc., priority 2015, dated 2019):
Like-named read-outs stand apart in the source and are kept apart here.

Biological target: T1, Human Factor D (Homo sapiens, UniProt P00746)
T1 construct: purified from human serum; purchased Complement Technology, Inc; host or cells: human serum (natural protein, not recombinant)
Assay: Human Factor D Assay
Format: biochemical
Method: Example 8. Human Factor D Assay
Human Factor D (purified from human serum, Complement Technology, Inc.) at 80 nM final concentration is incubated with test compound at various concentrations for 5 minutes at room temperature in 50 mM Tris, 1M NaCl, pH 7.5. A synthetic substrate Z-L-Lys-SBzl and DTNB (Ellman's reagent) are added to final concentrations of 100 μM each. Absorbance at 405 nm (A405) is recorded at 30 second intervals for 30 minutes using a microplate spectrophotometer. IC50 values are calculated by nonlinear regression of complement Factor D reaction rates as a function of test compound concentration.

[1] = Table 1, Human Factor D 80 nM, substrate Z-L-Lys-SBzl, read-out: IC50

T1 sequence (P00746 26-253): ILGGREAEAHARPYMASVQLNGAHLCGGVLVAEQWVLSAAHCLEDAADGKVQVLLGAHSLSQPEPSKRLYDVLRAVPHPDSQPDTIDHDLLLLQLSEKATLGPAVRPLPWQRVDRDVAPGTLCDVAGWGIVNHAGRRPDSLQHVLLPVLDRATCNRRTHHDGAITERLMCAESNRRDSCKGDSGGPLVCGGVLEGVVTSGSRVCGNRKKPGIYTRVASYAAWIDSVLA

Structure (SMILES) | IC50 | IC50 [1]
CC(=O)c1cn(CC(=O)N2C[C@H](F)C[C@H]2C(=O)NCc2cccc(Cl)c2F)c2cc(OCP(=O)(O)OCOC(=O)OC(C)C)ccc12 [Compound 13, (((((3-Acetyl-1-(2-((2S,4R)-2-((3-chloro-2-fluorobenzyl)carbamoyl)-4-fluoropyrrolidin-1-yl)-2-oxoethyl)-1H-indol-6-yl)oxy)methyl)(hydroxy)phosphoryl)oxy)methyl isopropyl carbonate] | < 1000 nM | 
CCOP(=O)(CC)COc1ccc2c(C(C)=O)cn(CC(=O)N3C[C@H](F)C[C@H]3C(=O)NCc3cccc(Cl)c3F)c2c1 (stereo partly drawn) [Compound 14, Ethyl (((3-acetyl-1-(2-((2S,4R)-2-((3-chloro-2-fluorobenzyl)carbamoyl)-4-fluoropyrrolidin-1-yl)-2-oxoethyl)-1H-indol-6-yl)oxy)methyl)(ethyl)phosphinate] |  | < 1000 nM
CC(=O)c1cn(CC(=O)N2C[C@H](F)C[C@H]2C(=O)NCc2cccc(Cl)c2F)c2cc(OCS(=O)(=O)NC(C)(C)C)ccc12 [Compound 15, (2S,4R)-1-(2-(3-Acetyl-6-((N-(tert-butyl)sulfamoyl)methoxy)-1H-indol-1-yl)acetyl)-N-(3-chloro-2-fluorobenzyl)-4-fluoropyrrolidine-2-carboxamide] | < 1000 nM | 
CCP(=O)(O)COc1ccc2c(C(C)=O)cn(CC(=O)N3C[C@H](F)C[C@H]3C(=O)NCc3cccc(Cl)c3F)c2c1 [Compound 16, (((3-Acetyl-1-(2-((2S,4R)-2-((3-chloro-2-fluorobenzyl)carbamoyl)-4-fluoropyrrolidin-1-yl)-2-oxoethyl)-1H-indol-6-yl)oxy)methyl)(ethyl)phosphinic Acid] | < 1000 nM | 
CC(=O)c1cn(CC(=O)N2C[C@H](F)C[C@H]2C(=O)NCc2cccc(Cl)c2F)c2cc(OCS(N)(=O)=O)ccc12 [Compound 17, (2S,4R)-1-(2-(3-acetyl-6-(sulfamoylmethoxy)-1H-indol-1-yl)acetyl)-N-(3-chloro-2-fluorobenzyl)-4-fluoropyrrolidine-2-carboxamide] |  | < 1000 nM
CCOP(=O)(COc1ccc2c(C(C)=O)cn(CC(=O)N3C[C@H](F)C[C@H]3C(=O)N[C@H](C)c3cccc(Cl)c3F)c2c1)OCC [Compound 18, diethyl (3-acetyl-1-(2-((2S,4R)-2-((R)-1-(3-chloro-2-fluorophenyl)ethylcarbamoyl)-4-fluoropyrrolidin-1-yl)-2-oxoethyl)-1H-indol-6-yloxy)methylphosphonate] |  | < 1000 nM
CC(=O)c1cn(CC(=O)N2C[C@H](F)C[C@H]2C(=O)N[C@H](C)c2cccc(Cl)c2F)c2cc(OCP(=O)(O)O)ccc12 [Compound 19, (3-acetyl-1-(2-((2S,4R)-2-((R)-1-(3-chloro-2-fluorophenyl)ethylcarbamoyl)-4-fluoropyrrolidin-1-yl)-2-oxoethyl)-1H-indol-6-yloxy)methylphosphonic acid] |  | < 1000 nM
CCCCCCCCCCCCCCCCOCCCOP(=O)(O)COc1ccc2c(C(C)=O)cn(CC(=O)N3C[C@H](F)C[C@H]3C(=O)NCc3cccc(Cl)c3F)c2c1 [Compound 20, 3-(hexadecyloxy)propyl hydrogen (3-acetyl-1-(2-((2S,4R)-2-(3-chloro-2-fluorobenzylcarbamoyl)-4-fluoropyrrolidin-1-yl)-2-oxoethyl)-1H-indol-6-yloxy)methylphosphonate] |  | < 1000 nM
CC(=O)c1cn(CC(=O)N2C[C@H](F)C[C@H]2C(=O)NCc2cccc(Cl)c2F)c2cc(OCP(=O)(OCOC(=O)C(C)(C)C)OCOC(=O)C(C)(C)C)ccc12 [Compound 21, (((((3-Acetyl-1-(2-((2S,4R)-2-((3-chloro-2-fluorobenzyl)carbamoyl)-4-fluoropyrrolidin-1-yl)-2-oxoethyl)-1H-indol-6-yl)oxy)methyl)phosphoryl)bis(oxy))bis(methylene) bis(2,2-dimethylpropanoate)] | < 1000 nM | 
CC(=O)c1cn(CC(=O)N2C[C@H](F)C[C@H]2CNS(=O)(=O)c2cccc(Cl)c2F)c2cc(OCP(=O)(O)O)ccc12 [Compound 22, (3-acetyl-1-(2-((2S,4R)-2-((3-chloro-2-fluorophenylsulfonamido)methyl)-4-fluoropyrrolidin-1-yl)-2-oxoethyl)-1H-indol-6-yloxy)methylphosphonic acid] |  | < 1000 nM
CCC(=O)OC(OP(=O)(COc1ccc2c(C(C)=O)cn(CC(=O)N3C[C@H](F)C[C@H]3C(=O)NCc3cccc(Cl)c3F)c2c1)OC(OC(=O)CC)C(C)C)C(C)C (stereo partly drawn) [Compound 23, 1,1′-(((3-acetyl-1-(2-((2S,4R)-2-(3-chloro-2-fluorobenzylcarbamoyl)-4-fluoropyrrolidin-1-yl)-2-oxoethyl)-1H-indol-6-yloxy)methyl)phosphoryl)bis(oxy)bis(2-methylpropane-1,1-diyl) dipropionate] |  | < 1000 nM
CC(=O)c1cn(CC(=O)N2C[C@H](F)C[C@H]2C(=O)NCc2cccc(Cl)c2F)c2cc(OCP(=O)(N[C@@H](C)C(=O)OC(C)C)N[C@@H](C)C(=O)OC(C)C)ccc12 [Compound 24, (2S,2′S)-isopropyl-2,2′-(((3-acetyl-1-(2-((2S,4R)-2-(3-chloro-2-fluorobenzylcarbamoyl)-4-fluoropyrrolidin-1-yl)-2-oxoethyl)-1H-indol-6-yloxy)methyl)phosphoryl)bis(azanediyl) dipropanoate] | < 1000 nM | 
CC(=O)c1cn(CC(=O)N2C[C@H](F)C[C@H]2C(=O)Nc2ccc(OC(F)(F)F)c(F)c2)c2cc(OCP(=O)(O)O)ccc12 [Compound 25, (3-acetyl-1-(2-((2S,4R)-4-fluoro-2-(3-fluoro-4-(trifluoromethoxy)phenylcarbamoyl)pyrrolidin-1-yl)-2-oxoethyl)-1H-indol-6-yloxy)methylphosphonic acid] |  | < 1000 nM
CC(=O)c1cn(CC(=O)N2C[C@H](F)C[C@H]2C(=O)Nc2cccc(Oc3ccccc3)c2)c2cc(OCP(=O)(O)O)ccc12 [Compound 26, (3-acetyl-1-(2-((2S,4R)-4-fluoro-2-(3-phenoxyphenylcarbamoyl)pyrrolidin-1-yl)-2-oxoethyl)-1H-indol-6-yloxy)methylphosphonic acid] |  | < 1000 nM
CC(=O)c1cn(CC(=O)N2C[C@H](F)C[C@H]2C(=O)Nc2cccc(OC(F)(F)F)c2F)c2cc(OCP(=O)(O)O)ccc12 [Compound 27, (3-acetyl-1-(2-((2S,4R)-4-fluoro-2-(2-fluoro-3-(trifluoromethoxy)phenylcarbamoyl)pyrrolidin-1-yl)-2-oxoethyl)-1H-indol-6-yloxy)methylphosphonic acid] |  | < 1000 nM
CC(C)(C)NS(=O)(=O)COc1ccc2c(C(N)=O)nn(CC(=O)N3C[C@H](F)C[C@H]3C(=O)Nc3cccc(-c4ccccc4Cl)c3F)c2c1 [Compound 28] |  | < 1000 nM
NC(=O)c1nn(CC(=O)N2C[C@H](F)C[C@H]2C(=O)Nc2cccc(-c3ccccc3Cl)c2F)c2cc(OCS(N)(=O)=O)ccc12 [Compound 29] |  | < 1000 nM
CC(=O)c1cn(CC(=O)N2C[C@H](F)C[C@H]2C(=O)NCc2cccc(Cl)c2F)c2cc(Oc3ncccn3)ccc12 [Compound 30, (2S,4R)-1-(2-(3-Acetyl-6-(pyrimidin-2-yloxy)-1H-indol-1-yl)acetyl)-N-(3-chloro-2-fluorobenzyl)-4-fluoropyrrolidine-2-carboxamide] |  | < 1000 nM
NC(=O)c1nn(CC(=O)N2C[C@H](F)C[C@H]2C(=O)Nc2cccc(-c3ccccc3Cl)c2F)c2ccc(Oc3cncnc3)cc12 [Compound 31, 1-(2-((2S,4R)-2-((2′-Chloro-2-fluoro-[1,1′-biphenyl]-3-yl)carbamoyl)-4-fluoropyrrolidin-1-yl)-2-oxoethyl)-5-(pyrimidin-5-yloxy)-1H-indazole-3-carboxamide] | < 1000 nM | 
CC(=O)c1cn(CC(=O)N2C[C@H](F)C[C@H]2C(=O)Nc2cccc(-c3ccccc3Cl)c2F)c2cc(Oc3ncccn3)ccc12 [Compound 32, (2S,4R)-1-(2-(3-Acetyl-6-(pyrimidin-2-yloxy)-1H-indol-1-yl)acetyl)-N-(2′-chloro-2-fluoro-[1,1′-biphenyl]-3-yl)-4-fluoropyrrolidine-2-carboxamide] |  | < 1000 nM
CC(=O)c1cn(CC(=O)N2C[C@H](F)C[C@H]2C(=O)Nc2cccc(-c3ccccc3Cl)c2F)c2ccc(Oc3ncc(Br)cn3)cc12 [Compound 33, (2S,4R)-1-(2-(3-Acetyl-5-((5-bromopyrimidin-2-yl)oxy)-1H-indol-1-yl)acetyl)-N-(2′-chloro-2-fluoro-[1,1′-biphenyl]-3-yl)-4-fluoropyrrolidine-2-carboxamide] |  | < 1000 nM
CC(=O)c1cn(CC(=O)N2[C@@H]3C[C@@H]3C[C@H]2C(=O)Nc2cccc(-c3ccccc3Cl)c2F)c2ccc(Oc3ncc(Br)cn3)cc12 [Compound 34, (1R,3S,5R)-2-(2-(3-Acetyl-5-((5-bromopyrimidin-2-yl)oxy)-1H-indol-1-yl)acetyl)-N-(2′-chloro-2-fluoro-[1,1′-biphenyl]-3-yl)-2-azabicyclo[3.1.0]hexane-3-carboxamide] |  | < 1000 nM
CC(=O)c1cn(CC(=O)N2C[C@H](F)C[C@H]2C(=O)Nc2cccc(Br)n2)c2ccc(Oc3ncc(Br)cn3)cc12 [Compound 35, (2S,4R)-1-(2-(3-acetyl-5-(5-bromopyrimidin-2-yloxy)-1H-indol-1-yl)acetyl)-N-(6-bromopyridin-2-yl)-4-fluoropyrrolidine-2-carboxamide] |  | < 1000 nM
CC(=O)c1cn(CC(=O)N2C[C@H](F)C[C@H]2C(=O)Nc2cccc(-c3ccccc3Cl)c2F)c2ccc(Oc3cnc(C#N)nc3)cc12 [Compound 36, (2S,4R)-1-(2-(3-acetyl-5-(2-cyanopyrimidin-5-yloxy)-1H-indol-1-yl)acetyl)-N-(2′-chloro-2-fluorobiphenyl-3-yl)-4-fluoropyrrolidine-2-carboxamide] |  | < 1000 nM
